Experimental data from the supplement of paper PMC10307832.

How the values were obtained:
Assay in all cases: relative viability (nuclei count vs DMSO), 5 days (fraction); higher = more cells survive
[1] = compound: C1CN(CCC1C(C2=CC3=C(C=C2)OCO3)(C4=CC5=C(C=C4)OCO5)O)C(=O)OC6=CC=C(C=C6)[N+](=O)[O-] [JZL-184] + COc1cc2c(Oc3ccc(NC(=O)C4(C(=O)Nc5ccc(F)cc5)CC4)cc3F)ccnc2cc1OCCCN1CCOCC1 [Foretinib] (partner 0.25 µM)
Procedure, shortened: (§1)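 Lung cancer cell lines in 1536-well plates were dosed by pin tool the day after seeding, either with one drug alone or with a fixed anchor-drug dose plus five library-drug doses (not always all listed) in √10 steps. After 5 days, cells were fixed and their nuclei stained in one step (final 0.05% Triton X-100, 1% formaldehyde, 1 ug/ml Hoechst), then counted on 4× images. Relative viability is the nuclei count in treated wells divided by that in vehicle wells. Values are medians of duplicate plates.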

[2] = compound: C1CN(CCC1C(C2=CC3=C(C=C2)OCO3)(C4=CC5=C(C=C4)OCO5)O)C(=O)OC6=CC=C(C=C6)[N+](=O)[O-] [JZL-184] + COc1cccc2cc(-c3nc([C@H]4CC[C@H](C(=O)O)CC4)n4ncnc(N)c34)[nH]c12 [OSI-027] (partner 0.5 µM)
Procedure, shortened: as §1

[3] = compound: C1CN(CCC1C(C2=CC3=C(C=C2)OCO3)(C4=CC5=C(C=C4)OCO5)O)C(=O)OC6=CC=C(C=C6)[N+](=O)[O-] [JZL-184] + C[C@@H](Oc1cc(-c2cnn(C3CCNCC3)c2)cnc1N)c1c(Cl)ccc(F)c1Cl [Crizotinib] (partner 1 µM)
Procedure, shortened: as §1

[4] = compound: C1CN(CCC1C(C2=CC3=C(C=C2)OCO3)(C4=CC5=C(C=C4)OCO5)O)C(=O)OC6=CC=C(C=C6)[N+](=O)[O-] [JZL-184] + Cc1nc(NC(=O)N2CCC[C@H]2C(N)=O)sc1-c1ccnc(C(C)(C)C(F)(F)F)c1 [Alpelisib] (partner 2 µM)
Procedure, shortened: as §1

[5] = compound: C1CN(CCC1C(C2=CC3=C(C=C2)OCO3)(C4=CC5=C(C=C4)OCO5)O)C(=O)OC6=CC=C(C=C6)[N+](=O)[O-] [JZL-184] + N=C(N)NC(=N)NCCc1ccccc1 [Phenformin] (partner 250 µM)
Procedure, shortened: as §1

Row | Cell Line | relative viability ([1]; first compound 0.04 µM) | relative viability ([1]; first compound 0.4 µM) | relative viability ([1]; first compound 1.265 µM) | relative viability ([1]; first compound 4 µM) | relative viability ([2]; first compound 0.04 µM) | relative viability ([2]; first compound 0.4 µM) | relative viability ([2]; first compound 1.265 µM) | relative viability ([2]; first compound 4 µM) | relative viability ([3]; first compound 0.04 µM) | relative viability ([3]; first compound 0.4 µM) | relative viability ([3]; first compound 1.265 µM) | relative viability ([3]; first compound 4 µM) | relative viability ([4]; first compound 0.04 µM) | relative viability ([4]; first compound 0.4 µM) | relative viability ([4]; first compound 1.265 µM) | relative viability ([4]; first compound 4 µM) | relative viability ([5]; first compound 0.04 µM) | relative viability ([5]; first compound 0.4 µM) | relative viability ([5]; first compound 1.265 µM) | relative viability ([5]; first compound 4 µM)
1 | LCLC-103H | 0.833 | 0.682 | 0.724 | 0.529 | 0.525 | 0.528 | 0.428 | 0.455 | 1.02 | 0.959 | 1.02 | 1 | 1.03 | 0.867 | 1.05 | 0.981 | 0.338 | 0.296 | 0.345 | 0.323
2 | LK-2 | 1.27 | 1.11 | 1.31 | 1.5 | 0.195 | 0.193 | 0.249 | 0.21 | 0.223 | 0.232 | 0.211 | 0.22 | 1.55 | 1.14 | 1.06 | 1.06 | 0.374 | 0.676 | 0.678 | 0.416
3 | LOU-NH91 | 1.02 | 0.9 | 1.03 | 0.939 | 0.742 | 0.684 | 0.788 | 0.712 | 0.757 | 0.738 | 0.771 | 0.769 | 0.778 | 0.728 | 0.745 | 0.711 | 0.795 | 0.626 | 0.774 | 0.708
4 | LU99A | 0.801 | 0.726 | 0.873 | 0.767 | 0.327 | 0.293 | 0.269 | 0.284 | 0.657 | 0.529 | 0.622 | 0.63 | 0.587 | 0.535 | 0.538 | 0.486 | 0.86 | 0.763 | 0.999 | 0.968
5 | LXF-289 | 1.05 | 0.957 | 0.997 | 0.947 | 0.819 | 0.776 | 0.927 | 0.734 | 0.813 | 0.819 | 0.765 | 0.75 | 0.977 | 1.05 | 1.06 | 0.951 | 0.574 | 0.496 | 0.546 | 0.525
6 | NCI-H23 | 0.913 | 1.01 | 1.15 | 1.01 | 0.529 | 0.538 | 0.656 | 0.65 | 0.611 | 0.444 | 0.521 | 0.43 | 0.876 | 0.631 | 0.587 | 0.646 | 0.879 | 0.793 | 0.817 | 0.855
7 | NCI-H322M | 1.12 | 0.932 | 1.03 | 0.791 | 0.555 | 0.488 | 0.55 | 0.52 | 0.965 | 0.971 | 0.886 | 0.825 | 0.656 | 0.777 | 0.749 | 0.775 | 0.844 | 0.718 | 0.818 | 0.662
8 | NCI-H358 | 0.758 | 0.722 | 0.72 | 0.649 | 0.826 | 0.716 | 0.79 | 0.712 | 0.748 | 0.438 | 0.595 | 0.49 | 1.05 | 0.803 | 0.973 | 0.788 | 0.422 | 0.32 | 0.304 | 0.328
9 | NCI-H441 | 1.36 | 0.907 | 0.897 | 1.06 | 0.604 | 0.541 | 0.591 | 0.601 | 0.767 | 0.54 | 0.793 | 0.58 | 1.11 | 0.634 | 0.755 | 1.09 | 0.818 | 0.802 | 0.914 | 0.923
10 | NCI-H460 | 1.03 | 0.904 | 0.957 | 1.02 | 1.03 | 0.678 | 0.575 | 0.632 | 0.993 | 0.81 | 0.839 | 0.912 | 0.643 | 0.465 | 0.47 | 0.401 | 0.626 | 0.483 | 0.521 | 0.485
11 | NCI-H520 | 0.893 | 0.784 | 0.831 | 0.771 | 0.233 | 0.229 | 0.257 | 0.213 | 0.813 | 0.707 | 0.907 | 0.665 | 1.02 | 0.965 | 1.02 | 0.897 | 0.533 | 0.48 | 0.739 | 0.485
12 | NCI-H596 | 0.879 | 0.719 | 0.968 | 0.801 | 0.749 | 0.591 | 0.71 | 0.696 | 1.19 | 0.955 | 1.03 | 1.06 | 0.501 | 0.487 | 0.553 | 0.37 | 0.895 | 0.663 | 0.895 | 0.769
13 | NCI-H647 | 1.19 | 1.2 | 1.27 | 1.24 | 0.625 | 0.698 | 0.75 | 0.51 | 1.36 | 0.956 | 1 | 1.02 | 1.15 | 0.957 | 1.07 | 1.2 | 0.532 | 0.527 | 0.595 | 0.546
14 | NCI-H650 | 1.08 | 1.12 | 1.09 | 1.01 | 0.603 | 0.525 | 0.576 | 0.542 | 0.872 | 0.73 | 0.814 | 0.685 | 1.23 | 0.951 | 1.16 | 1.1 | 0.44 | 0.388 | 0.469 | 0.422
15 | NCI-H661 | 1.07 | 1.01 | 0.992 | 1.01 | 0.806 | 0.638 | 0.761 | 0.53 | 0.933 | – | 0.935 | 0.928 | 0.453 | 0.483 | 0.707 | 0.717 | 0.259 | 0.287 | 0.292 | 0.332
